By inhibition is commonly meant the drop in the measured response relative to a control, in per cent. For orientation: IC50 means the concentration needed to halve the response being measured. A higher IC50 goes with lower potency.

Peptide text beside a SMILES is read from it. * marks the point of attachment. Palmitoyl = CCCCCCCCCCCCCCCC(=O)*; Myristoyl = CCCCCCCCCCCCCC(=O)*

What all share (type): cell-based
In experiment [1] the target is T1, human muscarinic receptor M3 (Homo sapiens, UniProt P20309).
T1 construct: expressed in transfected cells; cultured in Ham's F-12 medium
T1 sequence (P20309 whole entry): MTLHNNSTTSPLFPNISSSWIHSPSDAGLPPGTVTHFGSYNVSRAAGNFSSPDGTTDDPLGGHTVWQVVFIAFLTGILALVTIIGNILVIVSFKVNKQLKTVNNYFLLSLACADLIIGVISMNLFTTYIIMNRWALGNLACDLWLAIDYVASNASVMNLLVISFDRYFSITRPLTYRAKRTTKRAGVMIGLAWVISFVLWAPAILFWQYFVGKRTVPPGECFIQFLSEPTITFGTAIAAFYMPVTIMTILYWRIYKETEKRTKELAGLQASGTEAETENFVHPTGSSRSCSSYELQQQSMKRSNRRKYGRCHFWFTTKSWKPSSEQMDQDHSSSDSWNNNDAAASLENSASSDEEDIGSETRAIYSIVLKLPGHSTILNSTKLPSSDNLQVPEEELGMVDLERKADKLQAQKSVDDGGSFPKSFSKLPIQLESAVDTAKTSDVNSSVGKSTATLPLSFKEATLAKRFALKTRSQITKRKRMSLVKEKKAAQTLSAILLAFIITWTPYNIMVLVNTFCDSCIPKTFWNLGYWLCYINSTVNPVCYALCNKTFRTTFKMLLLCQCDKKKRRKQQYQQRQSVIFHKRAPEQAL
The experiment can be described thus: Time-dependent inhibition of M3 activity, Fluo-4 NW calcium fluorescence. Particulars: peptide 50 μM, read-out: % Inhibition hM3 receptor activity. How it is done: Peptides of invention were designed to target the intracellular region of M3. Therefore, minimum time required to detect inhibitory effect on M3 activity was evaluated. For this purpose, inhibitory effect of peptides Seq. […] Epithelial stable cell line constitutively expressing human muscarinic receptor M3 was used to assess peptides activity. Cells were seeded in 96-well plates at 50% cell confluence in 100 μL of complete Ham's F-12 medium. After 24 hours, medium was removed and cells were incubated with 90 μL/well of Fluo-4 NW (Invitrogen) fluorescent calcium probe assay buffer containing probenecid, following manufacturer's instructions at 37° C. in a CO2 incubator. Peptides (50 μM), vehicle and atropine were incubated either with the probe (1 hour pre-incubation) or during fluorescence reading (direct effect). Afterwards, M3 activity was recorded for 20 cycles and direct effect peptides were added on cycle 3 after baseline assessment. Acetylcholine was added on cycle 13. Therefore, direct effect of peptides was monitored for 25 minutes. Inhibition values of M3 activity were calculated as percentages by considering maximum fluorescence corresponding to vehicle or non-treated cells acetylcholine-M3 activation and minimum as non-stimulated cells. Table E details inhibition values of M3 activity inhibition obtained for the peptides of invention.

In experiment [2] the target is T1, human muscarinic receptor M3. The experiment can be described thus: Dose-response inhibitory effect on M3 activity (IC50). How it is done:
(§1) Epithelial stable cell line constitutively expressing human muscarinic receptor M3 was used to assess peptides activity. Cells were seeded in 96-well plates at 50% cell confluence in 100 μL of complete Ham's F-12 medium. After 24 hours, medium was removed and cells were incubated with 90 μL/well of a solution of the peptides of the invention at 100, 50 or 10 μM or DMSO as vehicle. Peptides were dissolved in Fluo-4 NW (Invitrogen) fluorescent calcium probe assay buffer containing Probenecid, following manufacturer's instructions for 50 min at 37° C. in a CO2 incubator. Afterwards, M3 activity was determined by reading the fluorescence in a FLUOstar Galaxy reader (BMG LabTechnologies) using 485 nm filter for excitation and 520 nm for emission, recording signal before and after M3 activation with 10 nM acetylcholine. Fluorescence measurements were normalized to acetylcholine maximum fluorescence signal in vehicle treated cells. Atropine (100 nM) was used as positive control for inhibition. Inhibition values of M3 activity were calculated as percentages by considering maximum fluorescence corresponding to acetylcholine-M3 activation and minimum as non-stimulated cells. Table D details inhibition values of M3 activity inhibition obtained for the peptides of invention.
Characterization of Seq. ID No. 1, 3-8 peptides efficiency was obtained by calculating half maximal inhibitory concentration (IC50). For this purpose, experimental procedure regarding cell culture and fluorescent calcium probe assay was followed as described on Example 2. Peptides were assessed at concentrations between 0.1 and 100 μM and incubated for 1 hour together with Fluo-4 NW probe. Afterwards, M3 activity was determined by reading the fluorescence in a FLUOstar Galaxy reader (BMG LabTechnologies) using 485 nm filter for excitation and 520 nm for emission, recording signal before and after M3 activation with acetylcholine. Fluorescence measurements were standardized with regard to the maximum fluorescence signal detected with acetylcholine stimulation in vehicle treated cells. Inhibition values of M3 activity were calculated as percentages by considering maximum fluorescence corresponding to acetylcholine-M3 activation and minimum as non-stimulated cells. Percentage inhibition data was fitted to a sigmoidal curve to obtain IC50. Table F details inhibition values for IC50

Experiment [3] has the same target. As to the kind of experiment: Inhibition of M3-acetylcholine activation, Fluo-4 NW calcium fluorescence. As to conditions: 50 min incubation, 10 nM acetylcholine; for inhibition at 10 µM / inhibition at 50 µM / inhibition at 100 µM: 50 min. On the procedure: as §1
The mark [4] stands for this setting: 25 min, 25 minutes (direct effect).
[5] abbreviates: 60 minutes (1 hour pre-incubation).

In the case of `CCCCCCCCCCCCCCCC(=O)N[C@@H](Cc1c[nH]c2ccccc12)C(=O)N[C@@H](CCSC)C(=O)N[C@@H](CCCNC(=N)N)C(=O)N[C@@H](CC(C)C)C(N)=O` [Seq. ID No. 1 Palmitoyl] (Palmitoyl-WMRL-NH2), the results for the inhibition at 50 µM in experiment [1] (setting [4]), in experiment [1] (setting [5]) and in experiment [3] (peptide 50 μM) were 25.1%, 69.5% and 70.9%, respectively. The IC50 in experiment [2] turned out to be 38.3 µM. The inhibition at 10 µM in experiment [3] (peptide 10 μM) was 15.4%. In addition, the inhibition at 100 µM in experiment [3] (peptide 100 μM) amounted to 95.6%.
Take `CCCCCCCCCCCCCCCC(=O)N[C@@H](Cc1c[nH]c2ccccc12)C(=O)N[C@@H](CCSC)C(=O)N[C@@H](CCCNC(=N)N)C(=O)N[C@@H](CC(C)C)C(=O)N[C@@H](CCCCN)C(=O)N[C@@H](C)C(N)=O` [Seq. ID No. 3 Palmitoyl] (Palmitoyl-WMRLKA-NH2): the inhibition at 50 µM in experiment [1] (setting [4]) was 16.4%; in experiment [1] (setting [5]), 73%; in experiment [3] (peptide 50 μM), 73.7%. In experiment [2], this compound registered an IC50 of 12.7 µM. Also, the inhibition at 10 µM in experiment [3] (peptide 10 μM) was 41%. Also, the inhibition at 100 µM in experiment [3] (peptide 100 μM) turned out to be 75.7%.
Take `CCCCCCCCCCCCCCCC(=O)N[C@@H](Cc1c[nH]c2ccccc12)C(=O)N[C@@H](CCSC)C(=O)N[C@@H](CC(N)=O)C(=O)N[C@@H](CC(C)C)C(=O)N[C@@H](CCCCN)C(=O)N[C@H](C(N)=O)[C@@H](C)O` [Seq. ID No. 4 Palmitoyl] (Palmitoyl-WMNLKT-NH2): the results for the inhibition at 50 µM in experiment [1] (setting [4]), in experiment [1] (setting [5]) and in experiment [3] (peptide 50 μM) were 11.5%, 69.1% and 59.6%, respectively. In addition, the IC50 in experiment [2] is 8 µM. Moreover, the inhibition at 10 µM in experiment [3] (peptide 10 μM) was found to be 35.3%. Moreover, the inhibition at 100 µM in experiment [3] (peptide 100 μM) is 60.6%.
As for `CCCCCCCCCCCCCCCC(=O)N[C@@H](Cc1c[nH]c2ccccc12)C(=O)N[C@@H](CCSC)C(=O)N[C@@H](Cc1ccccc1)C(=O)N[C@@H](CC(C)C)C(=O)N[C@@H](CCCCN)C(N)=O` [Seq. ID No. 5 Palmitoyl] (Palmitoyl-WMFLK-NH2), the figures for the inhibition at 50 µM in experiment [1] (setting [4]), in experiment [1] (setting [5]) and in experiment [3] (peptide 50 μM) were -7.1%, 84.4% and 45.7%, respectively. This compound showed an IC50 in experiment [2] of 61.1 µM. Moreover, in experiment [3] (peptide 10 μM), the inhibition at 10 µM is 0%. Besides, the inhibition at 100 µM in experiment [3] (peptide 100 μM) is 80.6%.
With `CCCCCCCCCCCCCC(=O)N[C@@H](CCCNC(=N)N)C(=O)N[C@@H](CCSC)C(=O)N[C@@H](Cc1ccc(O)cc1)C(=O)N[C@@H](CCCCN)C(=O)N[C@@H](CCSC)C(=O)N[C@@H](CCSC)C(=O)N[C@@H](C)C(=O)NCC(=O)N[C@@H](CCSC)C(=O)N[C@@H](Cc1ccc(O)cc1)C(=O)N[C@@H](CC(C)C)C(=O)N[C@@H](CCCNC(=N)N)C(N)=O` [Seq. ID No. 6 Myristoyl] (Myristoyl-RMYKMMAGMYLR-NH2), the figures for the inhibition at 50 µM in experiment [1] (setting [4]), in experiment [1] (setting [5]) and in experiment [3] (peptide 50 μM) were -20.2%, 54.7% and 56.4%, respectively. This compound displayed an IC50 in experiment [2] of 55.2 µM. For the same compound, the inhibition at 10 µM in experiment [3] (peptide 10 μM) stood at 14.8%. Further, the inhibition at 100 µM in experiment [3] (peptide 100 μM) was 92.1%.
Take `CCCCCCCCCCCCCC(=O)N[C@@H](CCCNC(=N)N)C(=O)N[C@H](C(=O)N[C@@H](CCSC)C(=O)N[C@@H](Cc1ccc(O)cc1)C(=O)N[C@@H](CCCCN)C(=O)N[C@@H](CCSC)C(=O)N[C@@H](CC(N)=O)C(=O)N[C@@H](CCCCN)C(=O)N[C@@H](CCCNC(=N)N)C(=O)N[C@@H](CC(=O)O)C(=O)N[C@@H](Cc1ccc(O)cc1)C(N)=O)C(C)C` [Seq. ID No. 7 Myristoyl] (Myristoyl-RVMYKMNKRDY-NH2): the values for the inhibition at 50 µM in experiment [1] (setting [4]), in experiment [1] (setting [5]) and in experiment [3] (peptide 50 μM) were 16.4%, 82.7% and 54.8%, respectively. The compound also yielded an IC50 in experiment [2] of 55 µM. Moreover, the inhibition at 10 µM in experiment [3] (peptide 10 μM) was determined as 15.9%. Besides, the inhibition at 100 µM in experiment [3] (peptide 100 μM) worked out at 92.4%.
In the case of `CCCCCCCCCCCCCC(=O)N[C@@H](CCCNC(=N)N)C(=O)N[C@H](C(=O)N[C@@H](CCSC)C(=O)N[C@@H](Cc1ccccc1)C(=O)N[C@@H](CCCCN)C(=O)N[C@@H](CCSC)C(=O)N[C@@H](Cc1ccccc1)C(=O)N[C@@H](CCCCN)C(=O)N[C@@H](CCCNC(=N)N)C(=O)N[C@@H](CC(=O)O)C(=O)N[C@@H](Cc1ccc(O)cc1)C(N)=O)C(C)C` [Seq. ID No. 8 Myristoyl] (Myristoyl-RVMFKMFKRDY-NH2), the results for the inhibition at 50 µM in experiment [1] (setting [4]), in experiment [1] (setting [5]) and in experiment [3] (peptide 50 μM) were 6.1%, 87.1% and 71.7%, respectively. In experiment [2], this compound gave a half-inhibitory concentration (IC50) of 9.8 µM. Besides, the inhibition at 10 µM in experiment [3] (peptide 10 μM) stood at 42.5%. For the same compound, the inhibition at 100 µM in experiment [3] (peptide 100 μM) is 93.8%.
Consider “Seq. ID No. 2 Acetyl: Nt-acetyl WMRLK, C terminus amidated (Ac-WMRLK-NH2)”, for which the “% M3 inhibition” value is reported as 0.0% in experiment [3] (peptide 10 μM), 9.1% in experiment [3] (peptide 50 μM) and 24.6% in experiment [3] (peptide 100 μM).
The like results for “Seq. ID No. 5 Acetyl: Nt-acetyl WMFLK, C terminus amidated (Ac-WMFLK-NH2)” were, in that order, 3.9%, 6.2% and 15.1%.
The like results for “Seq. ID No. 6 Acetyl: Nt-acetyl RMYKMMAGMYLR, C terminus amidated (Ac-RMYKMMAGMYLR-NH2)” were, in that order, 3.0%, 26.4% and 32.5%.
Turning to “Seq. ID No. 6 Palmitoyl: Nt-palmitoyl RMYKMMAGMYLR, C terminus amidated (Palmitoyl-RMYKMMAGMYLR-NH2)”, the “% M3 inhibition” value in experiment [3] (peptide 10 μM) stood at 34.5%.
Turning to “Seq. ID No. 7 Acetyl: Nt-acetyl RVMYKMNKRDY, C terminus amidated (Ac-RVMYKMNKRDY-NH2)”, the results for the “% M3 inhibition” value in experiment [3] (peptide 10 μM), in experiment [3] (peptide 50 μM) and in experiment [3] (peptide 100 μM) were 8.6%, 8.3% and 20.6%, respectively.
For the compound “Seq. ID No. 7 Palmitoyl: Nt-palmitoyl RVMYKMNKRDY, C terminus amidated (Palmitoyl-RVMYKMNKRDY-NH2)”, in experiment [3] (peptide 10 μM), the “% M3 inhibition” value stood at 47.4%.
Turning to “Seq. ID No. 8 Acetyl: Nt-acetyl RVMFKMFKRDY, C terminus amidated (Ac-RVMFKMFKRDY-NH2)”, the entries for the “% M3 inhibition” value in experiment [3] (peptide 10 μM), in experiment [3] (peptide 50 μM) and in experiment [3] (peptide 100 μM) were 21.5%, 12.4% and 26.1%, respectively.
In the case of “Seq. ID No. 8 Palmitoyl: Nt-palmitoyl RVMFKMFKRDY, C terminus amidated (Palmitoyl-RVMFKMFKRDY-NH2)”, the “% M3 inhibition” value in experiment [3] (peptide 10 μM) stood at 32.7%.
